Assay results as given in the supplement of paper PMC10307832.

Assays:
Experiment in all cases: relative viability (nuclei count vs DMSO), 5 days (fraction); higher = more cells survive
[1] = compound: C=C(c1ccc(C(=O)O)cc1)c1cc2c(cc1C)C(C)(C)CCC2(C)C [Bexarotene] + CC(=O)c1c(C)c2cnc(Nc3ccc(N4CCNCC4)cn3)nc2n(C2CCCC2)c1=O [Palbociclib] (partner 0.5 µM)
Outline: (§1)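 Relative viability equals treated-well nuclei counts divided by vehicle-well nuclei counts. Counts came from 4× images of lung cancer cell lines grown in 1536-well plates for 5 days after pin-tool dosing on the day after seeding. Dosing used one drug alone or a fixed anchor-drug dose plus five library-drug doses (not always all listed) in √10 steps, and values are medians of duplicate plates.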

[2] = compound: C=C(c1ccc(C(=O)O)cc1)c1cc2c(cc1C)C(C)(C)CCC2(C)C [Bexarotene] + Cc1nc(Nc2ncc(C(=O)Nc3c(C)cccc3Cl)s2)cc(N2CCN(CCO)CC2)n1 [Dasatinib] (partner 0.075 µM)
Outline: as §1

[3] = compound: C=C(c1ccc(C(=O)O)cc1)c1cc2c(cc1C)C(C)(C)CCC2(C)C [Bexarotene] + CCNC(=O)c1noc(-c2cc(C(C)C)c(O)cc2O)c1-c1ccc(CN2CCOCC2)cc1 [Luminespib] (partner 0.01 µM)
Outline: as §1

[4] = compound: C=C(c1ccc(C(=O)O)cc1)c1cc2c(cc1C)C(C)(C)CCC2(C)C [Bexarotene] + CC(C)C[C@H](NC(=O)[C@H](Cc1ccccc1)NC(=O)c1cnccn1)B(O)O [Bortezomib] (partner 0.002 µM)
Outline: as §1

| Cell Line | relative viability ([1]; first compound 0.08 µM) | relative viability ([1]; first compound 0.253 µM) | relative viability ([1]; first compound 0.8 µM) | relative viability ([1]; first compound 2.53 µM) | relative viability ([1]; first compound 8 µM) | relative viability ([2]; first compound 0.08 µM) | relative viability ([2]; first compound 0.253 µM) | relative viability ([2]; first compound 0.8 µM) | relative viability ([2]; first compound 2.53 µM) | relative viability ([2]; first compound 8 µM) | relative viability ([3]; first compound 0.08 µM) | relative viability ([3]; first compound 0.253 µM) | relative viability ([3]; first compound 0.8 µM) | relative viability ([3]; first compound 2.53 µM) | relative viability ([3]; first compound 8 µM) | relative viability ([4]; first compound 0.08 µM) | relative viability ([4]; first compound 0.253 µM) | relative viability ([4]; first compound 0.8 µM) | relative viability ([4]; first compound 2.53 µM) | relative viability ([4]; first compound 8 µM) |
| --- | --- | --- | --- | --- | --- | --- | --- | --- | --- | --- | --- | --- | --- | --- | --- | --- | --- | --- | --- | --- |
| HCC-827 | 0.508 | 0.497 | 0.466 | 0.482 | 0.497 | 0.284 | 0.465 | 0.419 | 0.35 | 0.344 | 0.525 | 0.78 | 0.655 | 0.808 | 0.473 | 0.994 | 1.11 | 0.992 | 0.989 | 1 |
| HCC-78 | 0.518 | 0.416 | 0.403 | 0.473 | 0.509 | 0.402 | 0.264 | 0.278 | 0.33 | 0.363 | – | – | – | – | – | 0.442 | 0.453 | 0.491 | 0.524 | 0.5 |
| NCI-H2085 | 0.411 | 0.434 | 0.415 | 0.374 | 0.383 | 0.25 | 0.2 | 0.19 | 0.218 | 0.241 | 0.451 | 0.556 | 0.374 | 0.457 | 0.378 | 1.04 | 0.918 | 0.929 | 0.946 | 0.939 |
| PC-14 | 0.519 | 0.531 | 0.543 | 0.489 | 0.344 | 0.281 | 0.305 | 0.269 | 0.319 | 0.274 | 0.17 | 0.178 | 0.157 | 0.162 | 0.279 | 0.926 | 0.885 | 0.856 | 0.825 | 0.719 |
| NCI-H1648 | 0.222 | 0.313 | 0.229 | 0.235 | 0.23 | – | – | – | – | – | – | – | – | – | – | – | – | – | – | – |
| A-427 | 0.48 | 0.47 | 0.467 | 0.444 | 0.487 | 0.726 | 0.614 | 0.611 | 0.627 | 0.684 | 1.05 | 0.94 | 0.999 | 1.1 | 0.948 | 0.933 | 0.923 | 0.79 | 0.897 | 0.932 |
| H3255 | 0.333 | 0.335 | 0.316 | 0.344 | 0.346 | 0.406 | 0.311 | 0.385 | 0.338 | 0.334 | 0.869 | 0.935 | 1.01 | 0.785 | 0.954 | 0.733 | 0.919 | 0.784 | 0.65 | 0.856 |
| HCC-44 | 1 | 1.03 | 0.836 | 0.93 | 0.946 | – | – | – | – | – | 1.31 | 1.03 | 1.08 | 1.02 | 0.977 | 0.997 | 1 | 0.851 | 0.823 | 0.822 |
| NCI-H1734 | 0.333 | 0.33 | 0.292 | 0.282 | 0.318 | 0.478 | 0.484 | 0.412 | 0.411 | 0.46 | 0.2 | 0.182 | 0.177 | 0.172 | 0.195 | 0.896 | 0.98 | 0.936 | 0.87 | 0.818 |
| NCI-H2228 | 0.968 | 0.603 | 0.707 | 0.702 | 0.699 | 0.56 | 0.635 | 0.48 | 0.343 | 0.509 | 0.186 | 0.121 | 0.145 | 0.145 | 0.132 | 1.08 | 1.3 | 1.05 | 1.11 | 0.841 |
| ABC-1 | 0.617 | 0.676 | 0.662 | – | 0.655 | 0.521 | 0.715 | 0.635 | 0.445 | 0.659 | 0.591 | 0.654 | 0.597 | 0.576 | 0.677 | 0.3 | 0.311 | 0.269 | 0.291 | 0.336 |
| COR-L23 | 0.283 | 0.274 | 0.279 | 0.257 | 0.274 | 0.498 | 0.557 | 0.503 | 0.606 | 0.203 | 0.795 | 0.786 | 0.565 | 0.629 | 0.618 | 1.06 | 0.989 | 0.898 | 0.933 | 0.892 |
| NCI-H358 | 0.129 | 0.138 | 0.154 | 0.124 | 0.138 | 0.224 | 0.33 | 0.251 | 0.234 | 0.259 | 0.136 | 0.306 | 0.325 | 0.244 | 0.121 | – | – | – | – | – |
| EBC-1 | – | – | – | – | – | – | – | – | – | – | – | – | – | – | – | 0.63 | 0.541 | 0.415 | 0.555 | 0.442 |
| NCI-H596 | – | – | – | – | – | 0.671 | 0.654 | 0.773 | 0.907 | 0.704 | 1.08 | 1.18 | 1.01 | 0.983 | 0.963 | 1.01 | 0.986 | 0.836 | 0.795 | 0.85 |
| SK-MES-1 | 0.347 | 0.352 | 0.314 | 0.313 | 0.267 | 0.283 | 0.459 | 0.348 | 0.401 | 0.313 | 0.923 | 0.989 | 0.803 | 0.742 | 0.64 | – | – | – | – | – |
| NCI-H1703 | – | – | – | – | – | – | – | – | – | – | – | – | – | – | – | 0.254 | 0.253 | 0.258 | 0.227 | 0.27 |
| NCI-H1944 | 0.419 | 0.427 | 0.369 | 0.379 | 0.345 | 0.24 | 0.216 | 0.222 | 0.221 | 0.293 | 1.45 | 0.977 | 0.959 | 1.11 | 0.875 | – | – | – | – | – |
| NCI-H1563 | – | – | – | – | – | 0.489 | 0.423 | 0.449 | 0.469 | 0.487 | 0.518 | 0.493 | 0.48 | 0.524 | 0.503 | 0.9 | 0.814 | 0.741 | 0.83 | 0.98 |
| NCI-H1395 | 0.583 | 0.638 | 0.615 | 0.618 | 0.618 | 0.448 | 0.385 | 0.367 | 0.407 | 0.419 | 0.806 | 0.631 | 0.687 | 0.663 | 0.749 | – | – | – | – | – |
| NCI-H2170 | 0.343 | 0.403 | 0.324 | 0.325 | 0.331 | 0.615 | 0.466 | 0.522 | 0.476 | 0.584 | 0.835 | 0.697 | 0.721 | 0.464 | 0.695 | – | – | – | – | – |
